Each compound was assayed on Spontaneously hypertensive rats (SHR) (assay: Acute Efficacy in Spontaneously Hypertensive Rats (SHR), telemetry blood pressure). Conditions: single oral dose 0.3 mpk P.O.
Assay type: in vivo, rat
Method in brief: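 Male SHR with aortic telemetry catheters, 14-day recovery, conscious and freely moving; single oral gavage in 10% transcutol/20% Cremophor/70% water. BP sampled 30 s every 10 min, hourly averages minus prior-day vehicle baseline; value is maximum peak SBP decrease at stated mg/kg PO dose.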

Compound | Maximum peak decrease of systolic blood pressure (SBP) in SHR, Category
Cc1ccc2c(-c3nc(N)c4c(n3)NC(=O)C4(C)C(=O)NC3CCOCC3)nn(CCC(F)(F)C(F)(F)F)c2n1 (stereo not shown) [Example 239, 4-amino-5-methyl-2-[6-methyl-1-(3,3,4,4,4-pentafluorobutyl)-1H-pyrazolo[3,4-b]pyridin-3-yl]-6-oxo-N-(tetrahydro-2H-pyran-4-yl)-6,7-dihydro-5H-pyrrolo[2,3-d]pyrimidine-5-carboxamide] | A (Category A=SBP in SHRs<25 mmHg)
Nc1nc(-c2nn(CCC(F)(F)C(F)(F)F)c3ncccc23)nc2c1C(C(=O)NC1CC1)(C1CC1)C(=O)N2 (stereo not shown) [Example 242, 4-amino-N,5-dicyclopropyl-6-oxo-2-[1-(3,3,4,4,4-pentafluorobutyl)-1H-pyrazolo(3,4-b]pyridin-3-yl]-6,7-dihydro-5H-pyrrolo[2,3-d]pyrimidine-5-carboxamide] | B (Category B=SBP in SHRs 25-40 mmHg)
CC(C)C1(C(N)=O)C(=O)Nc2nc(-c3nn(CCC(F)(F)C(F)(F)F)c4ncccc34)nc(N)c21 (stereo not shown) [Example 244, 4-amino-5-(1-methylethyl)-6-oxo-2-(1-(3,3,4,4,4-pentafluorobutyl)-1H-pyrazolo[3,4-b]pyridin-3-yl]-6,7-dihydro-5H-pyrrolo[2,3-d]pyrimidine-5-carboxamide] | C (Category C=SBP in SHRs>40 mmHg)
Nc1nc(-c2nn(CCC(F)(F)F)c3ncccc23)nc2c1C(C(=O)NC1CC1)(C1CC1)C(=O)N2 (stereo not shown) [Example 245, 4-amino-N,5-dicyclopropyl-6-oxo-2-[1-(3,3,3-trifluoropropyl)-1H-pyrazolo[3,4-b]pyridin-3-yl]-6,7-dihydro-5H-pyrrolo[2,3-d]pyrimidine-5-carboxamide] | C (Category C=SBP in SHRs>40 mmHg)
Nc1nc(-c2nn(CCCC(F)(F)F)c3ncccc23)nc2c1C(C(=O)NC1CC1)(C1CC1)C(=O)N2 (stereo not shown) [Example 246, 4-amino-N,5-dicyclopropyl-6-oxo-2-[1-(4,4,4-trifluorobutyl)-1H-pyrazolo[3,4-b]pyridin-3-yl]-6,7-dihydro-5H-pyrrolo[2,3-d]pyrimidine-5-carboxamide] | C (Category C=SBP in SHRs>40 mmHg)
CC1(c2nc(C(F)(F)F)no2)C(=O)Nc2nc(-c3nc(CCCC(F)(F)F)n4cc(F)ccc34)nc(N)c21 (stereo not shown) [Example 248, 4-amino-2-[6-fluoro-3-(4,4,4-trifluorobutyl)imidazo[1,5-a]pyridin-1-yl]-5-methyl-5-[3-(trifluoromethyl)-1,2,4-oxadiazol-5-yl]-5,7-dihydro-6H-pyrrolo[2,3-d]pyrimidin-6-one] | B (Category B=SBP in SHRs 25-40 mmHg)
CC1(C(=O)NC2CC2)C(=O)Nc2nc(-c3nc(CCC(F)(F)C(F)(F)F)n4ncccc34)nc(N)c21 (stereo not shown) [Example 251, 4-amino-H-cyclopropyl-5-methyl-6-oxo-2-[7-(3,3,4,4,4-pentafluorobutyl)imidazo[1,5-b]pyridazin-5-yl]-6,7-dihydro-5H-pyrrolo[2,3-d]pyrimidine-5-carboxamide] | C (Category C=SBP in SHRs>40 mmHg)
CC1(C(=O)NC2CC2)C(=O)Nc2nc(-c3nc(CCC(F)(F)C(F)(F)F)n4cc(F)ccc34)nc(N)c21 (stereo not shown) [Example 252, 4-amino-H-cyclopropyl-2-[6-fluoro-3-(3,3,4,4,4-pentafluorobutyl)imidazo[1,5-a]pyridin-1-yl]-5-methyl-6-oxo-6,7-dihydro-5H-pyrrolo[2,3-d]pyrimidine-5-carboxamide] | B (Category B=SBP in SHRs 25-40 mmHg)
CC1(C(=O)Nc2cccnc2)C(=O)Nc2nc(-c3nc(CCC(F)(F)C(F)(F)F)n4cc(F)ccc34)nc(N)c21 (stereo not shown) [Example 253, 4-amino-2-[6-fluoro-3-(3,3,4,4,4-pentafluorobutyl)imidazo[1,5-a]pyridin-1-yl]-5-methyl-6-oxo-H-pyridin-3-yl-6,7-dihydro-5H-pyrrolo[2,3-d]pyrimidine-5-carboxamide] | A (Category A=SBP in SHRs<25 mmHg)
CC1(c2nnc(C3CC3)o2)C(=O)Nc2nc(-c3nc(CCC(F)(F)C(F)(F)F)n4ncccc34)nc(N)c21 (stereo not shown) [Example 255, 4-amino-5-(5-cyclopropyl-1,3,4-oxadiazol-2-yl)-5-methyl-2-[7-(3,3,4,4,4-pentafluorobutyl)imidazo[1,5-b]pyridazin-5-yl]-5,7-dihydro-6H-pyrrolo[2,3-d]pyrimidin-6-one] | B (Category B=SBP in SHRs 25-40 mmHg)
CC1(C(=O)NC2CC2)C(=O)Nc2nc(-c3nc(CCC(F)(F)F)n4ncccc34)nc(N)c21 (stereo not shown) [Example 256, 4-amino-H-cyclopropyl-5-methyl-6-oxo-2-[7-(3,3,3-trifluoropropyl)imidazo[1,5-b]pyridazin-5-yl]-6,7-dihydro-5H-pyrrolo[2,3-d]pyrimidine-5-carboxamide] | B (Category B=SBP in SHRs 25-40 mmHg)
CNc1nc(-c2nn(CCC(F)(F)C(F)(F)F)c3cc(Cl)ccc23)nc2c1C(C)(C(=O)NC1CC1)C(=O)N2 (stereo not shown) [Example 257, 2-[6-chloro-1-(3,3,4,4,4-pentafluorobutyl)-1H-indazol-3-yl)-N-cyclopropyl-5-methyl-4-(methylamino)-6-oxo-6,7-dihydro-5H-pyrrolo[2,3-d]pyrimidine-5-carboxamide] | A (Category A=SBP in SHRs<25 mmHg)
CNC(=O)C1(C)C(=O)Nc2nc(-c3nn(CCC(F)(F)C(F)(F)F)c4cc(Cl)ccc34)nc(NC)c21 (stereo not shown) [Example 258, 2-[6-chloro-1-(3,3,4,4,4-pentafluorobutyl)-1H-indazol-3-yl]-N,5-dimethyl-4-(methylamino)-6-oxo-6,7-dihydro-5H-pyrrolo[2,3-d]pyrimidine-5-carboxamide] | A (Category A=SBP in SHRs<25 mmHg)
CNC(=O)C1(C)C(=O)Nc2nc(-c3nn(CCC(F)(F)C(F)(F)F)c4ncccc34)nc(NC)c21 (stereo not shown) [Example 259, N,5-dimethyl-4-(methylamino)-6-oxo-2-[1-(3,3,4,4,4-pentafluorobutyl)-1H-pyrazolo[3,4-b]pyridin-3-yl]-6,7-dihydro-5H-pyrrolo[2,3-d]pyrimidine-5-carboxamide] | A (Category A=SBP in SHRs<25 mmHg)
CNc1nc(-c2nc(CCC(F)(F)C(F)(F)F)n3ncccc23)nc2c1C(C)(C(=O)NC1CC1)C(=O)N2 (stereo not shown) [Example 260, N-cyclopropyl-5-methyl-4-(methylamino)-6-oxo-2-[7-(3,3,4,4,4-pentafluorobutyl)imidazo[1,5-b]pyridazin-5-yl]-6,7-dihydro-5H-pyrrolo[2,3-d]pyrimidine-5-carboxamide] | B (Category B=SBP in SHRs 25-40 mmHg)
CNc1nc(-c2nn(CCC(F)(F)C(F)(F)F)c3ncccc23)nc2c1C(C)(c1nnc(C3CC3)o1)C(=O)N2 (stereo not shown) [Example 261, 5-(5-cyclopropyl-1,3,4-oxadiazol-2-yl)-5-methyl-4-(methylamino)-2-[1-(3,3,4,4,4-pentafluorobutyl)-1H-pyrazolo[3,4-b]pyridin-3-yl]-5,7-dihydro-6H-pyrrolo[2,3-d]pyrimidin-6-one] | C (Category C=SBP in SHRs>40 mmHg)

Same assay, conditions: single oral dose 1 mpk P.O.

Compound | Maximum peak decrease of systolic blood pressure (SBP) in SHR, Category
CCC1(C(N)=O)C(=O)Nc2nc(-c3nn(CCC(F)(F)C(F)(F)F)c4ncccc34)nc(N)c21 (stereo not shown) [Example 241, 4-amino-5-ethyl-6-oxo-2-[1-(3,3,4,4,4-pentafluorobutyl)-1H-pyrazolo[3,4-b]pyridin-3-yl]-6,7-dihydro-5H-pyrrolo[2,3-d]pyrimidine-5-carboxamide] | B (Category B=SBP in SHRs 25-40 mmHg)
Nc1nc(-c2nn(CCC(F)(F)C(F)(F)F)c3ncccc23)nc2c1C(C(=O)NC1CC1)(C1CCCC1)C(=O)N2 (stereo not shown) [Example 243, 4-amino-5-cyclopentyl-N-cyclopropyl-6-oxo-2-[1-(3,3,4,4,4-pentafluorobutyl)-1H-pyrazolo[3,4-b]pyridin-3-yl]-6,7-dihydro-5H-pyrrolo[2,3-d]pyrimidine-5-carboxamide] | B (Category B=SBP in SHRs 25-40 mmHg)
NC(=O)C1(C2CC2)C(=O)Nc2nc(-c3nn(CCCC(F)(F)F)c4ncccc34)nc(N)c21 (stereo not shown) [Example 247, 4-amino-5-cyclopropyl-6-oxo-2-[1-(4,4,4-trifluorobutyl)-1H-pyrazolo[3,4-b]pyridin-3-yl]-6,7-dihydro-5H-pyrrolo[2,3-d]pyrimidine-5-carboxamide] | C (Category C=SBP in SHRs>40 mmHg)
Cc1nc(C2(C)C(=O)Nc3nc(-c4nc(CCCC(F)(F)F)n5cc(Cl)ccc45)nc(N)c32)no1 (stereo not shown) [Example 249, 4-amino-2-[6-chloro-3-(4,4,4-trifluorobutyl)imidazo[1,5-a]pyridin-1-yl]-5-methyl-5-(5-methyl-1,2,4-oxadiazol-3-yl)-5,7-dihydro-6H-pyrrolo[2,3-d]pyrimidin-6-one] | A (Category A=SBP in SHRs<25 mmHg)
CC1(C(=O)NC2CC2)C(=O)Nc2nc(-c3nc(CCC(F)(F)C(F)(F)F)n4cc(Cl)ccc34)nc(N)c21 (stereo not shown) [Example 250, 4-amino-2-[6-chloro-3-(3,3,4,4,4-pentafluorobutyl)imidazo[1,5-a]pyridin-1-yl]-H-cyclopropyl-5-methyl-6-oxo-6,7-dihydro-5H-pyrrolo[2,3-d]pyrimidine-5-carboxamide] | C (Category C=SBP in SHRs>40 mmHg)
CC1(C(N)=O)C(=O)Nc2nc(-c3nc(CCC(F)(F)C(F)(F)F)n4ncccc34)nc(N)c21 (stereo not shown) [Example 254, 4-amino-5-methyl-6-oxo-2-[7-(3,3,4,4,4-pentafluorobutyl)imidazo[1,5-b]pyridazin-5-yl]-6,7-dihydro-5H-pyrrolo[2,3-d]pyrimidine-5-carboxamide] | B (Category B=SBP in SHRs 25-40 mmHg)

Source: patent US9365574B2, “Soluble guanylate cyclase activators” (Merck Sharp & Dohme Corp., priority 2010, dated 2016)
